Reference: ChEMBL document CHEMBL4819045 (Bioorg Med Chem Lett, 2021)

Key:
[1] = in vitro; conditions: rat
[2] = PAMPA
[3] = in vitro; conditions: PAMPA
[4] = rat, microsomes

Compound | half-life ([1]; liver microsomes) | Papp [3] | other results
O=C(Nc1c(Cl)cc([N+](=O)[O-])cc1Cl)c1cc(Cl)ccc1O | 20 min | – | –
COc1ccc(Cl)cc1C(=O)Nc1ccc([N+](=O)[O-])cc1Cl | 27 min | – | permeability [2]: 1007 10^-6 cm/s
O=C(Nc1ncc([N+](=O)[O-])s1)c1cc(Cl)ccc1O | 3 min | 37 ×10⁻⁶ cm/s | –
O=C(Nc1ccc([N+](=O)[O-])cc1)c1cc(Cl)ccc1O | – | – | Stabilty [4]: 22 min; permeability [2]: 127.1 10^-6 cm/s
O=C(Nc1ccc(Cl)cc1)c1cc(Cl)ccc1O | 14 min | 297 ×10⁻⁶ cm/s | –
O=C(Nc1ccc(C(F)(F)F)cc1)c1cc(Cl)ccc1O | > 30 min | < 22.3 ×10⁻⁶ cm/s | –
Nc1ccc(NC(=O)c2cc(Cl)ccc2O)c(Cl)c1 | 30 min | 152 ×10⁻⁶ cm/s | –
Cc1ccc(O)c(C(=O)Nc2ccc([N+](=O)[O-])cc2Cl)c1 | 19.5 min | 134 ×10⁻⁶ cm/s | –
O=C(Nc1ccc(F)cc1)c1cc(Cl)ccc1O | 18.4 min | – | permeability [2]: 390.8 10^-6 cm/s
COc1ccc(NC(=O)c2cc(Cl)ccc2O)cc1 | 3.3 min | 81 ×10⁻⁶ cm/s | –
O=C(Nc1ccc(C(F)(F)F)cc1Cl)c1cc(Cl)ccc1O | > 30 min | – | –
O=C(Nc1ccc(F)cc1F)c1cc(Cl)ccc1O | 18 min | – | –
O=C(Nc1c(F)cccc1F)c1cc(Cl)ccc1O | > 30 min | 32 ×10⁻⁶ cm/s | –
O=C(Nc1ccc(F)c(Cl)c1)c1cc(Cl)ccc1O | 11 min | – | –
O=C(Nc1ccccc1C(F)(F)F)c1cc(Cl)ccc1O | 15 min | 26 ×10⁻⁶ cm/s | –
O=C(Nc1ccc([N+](=O)[O-])cc1Cl)c1cc(Cl)ccc1OC1CCNCC1 | > 30 min | 517 ×10⁻⁶ cm/s | –
NCCOc1ccc(Cl)cc1C(=O)Nc1ccc([N+](=O)[O-])cc1Cl | > 30 min | – | permeability [2]: 1023 10^-6 cm/s
O=C(Nc1ccccc1[N+](=O)[O-])c1cc(Cl)ccc1O | – | 153 ×10⁻⁶ cm/s | –
CC(=O)Nc1ccc(NC(=O)c2cc(Cl)ccc2O)c(Cl)c1 | > 30 min | 87 ×10⁻⁶ cm/s | –
Cc1ccc(NC(=O)c2cc(Cl)ccc2O)cc1 | 1.6 min | 21 ×10⁻⁶ cm/s | –
O=C(Nc1ccc([N+](=O)[O-])cc1Cl)c1ccc2ccccc2c1O | 16.6 min | 90.2 ×10⁻⁶ cm/s | –
O=C(Nc1ccc(C(F)(F)F)cc1)c1cc(Br)ccc1O | > 30 min | – | –
O=C(Nc1ccccc1Cl)c1cc(Cl)ccc1O | 19 min | – | permeability [2]: 118 10^-6 cm/s

Compound | half-life ([1]; liver microsomes) | Papp [3] | other results
O=C(Nc1ccc(Cl)cc1Cl)c1cc(Cl)ccc1O | > 30 min | < 22.4 ×10⁻⁶ cm/s | –
O=C(Nc1c(Cl)cccc1Cl)c1cc(Cl)ccc1O | 24 min | 73 ×10⁻⁶ cm/s | –
O=C(Nc1ccc(F)cc1Cl)c1cc(Cl)ccc1O | 19.3 min | 50.5 ×10⁻⁶ cm/s | –
N#Cc1ccc(NC(=O)c2cc(Cl)ccc2O)c(Cl)c1 | > 30 min | 5.1 ×10⁻⁶ cm/s | –
O=C(Nc1ccc([N+](=O)[O-])c(Cl)c1)c1cc(Cl)ccc1O | 3.8 min | 68 ×10⁻⁶ cm/s | –
O=C(Nc1ccncc1Cl)c1cc(Cl)ccc1O | > 30 min | 31 ×10⁻⁶ cm/s | –
COc1cc([N+](=O)[O-])ccc1NC(=O)c1cc(Cl)ccc1O | > 30 min | – | –
O=C(Nc1ccc([N+](=O)[O-])cc1Cl)c1c(O)ccc2ccccc12 | 14.4 min | 356 ×10⁻⁶ cm/s | –
CS(=O)(=O)Nc1ccc(Br)cc1C(=O)Nc1ccc([N+](=O)[O-])cc1Cl | > 30 min | 85.1 ×10⁻⁶ cm/s | –
CC(C)c1cnc(NC(=O)c2cc(Cl)ccc2O)s1 | 2 min | 117 ×10⁻⁶ cm/s | –
COc1ccc(Cl)c(NC(=O)c2cc(Cl)ccc2O)c1 | 5.4 min | 34 ×10⁻⁶ cm/s | –
N#Cc1ccc(NC(=O)c2ccc3ccccc3c2O)c(Cl)c1 | 27 min | 111 ×10⁻⁶ cm/s | –
CN1CCC(NC(=O)c2cc(Cl)ccc2O)CC1 | 1.8 min | 212 ×10⁻⁶ cm/s | –
CC(=O)c1ccc(O)c(C(=O)Nc2ccc([N+](=O)[O-])cc2Cl)c1 | > 30 min | 33.1 ×10⁻⁶ cm/s | –
COc1cccc(NC(=O)c2cc(Cl)ccc2O)c1 | 4 min | 43 ×10⁻⁶ cm/s | –
COc1cc([N+](=O)[O-])ccc1NC(=O)c1cc(Br)ccc1O | > 30 min | – | –
O=C(Nc1ccc([N+](=O)[O-])c2ccccc12)c1cc(Cl)ccc1O | 10.7 min | 141 ×10⁻⁶ cm/s | –
O=C(Nc1ccc(C(F)(F)F)c(Cl)c1)c1cc(Br)ccc1O | > 30 min | 23.2 ×10⁻⁶ cm/s | –
CC(=O)Nc1ccccc1C(=O)Nc1ccc([N+](=O)[O-])cc1Cl | – | 431 ×10⁻⁶ cm/s | –
N#Cc1ccc(NC(=O)c2cc(-c3ccc(F)cc3F)ccc2O)c(Cl)c1 | > 30 min | – | –
CN(C)C(=O)c1cccc(NC(=O)c2cc(Cl)ccc2O)c1 | 26 min | 5 ×10⁻⁶ cm/s | –
O=C(Nc1ccc([N+](=O)[O-])cc1Cl)c1cc(Cl)ccc1NS(=O)(=O)c1ccccc1 | > 30 min | – | permeability [2]: 2250 10^-6 cm/s
O=C(Nc1ccc([N+](=O)[O-])cc1Cl)c1cnc2ccccc2c1O | 18 min | 499 ×10⁻⁶ cm/s | –

Compound | half-life ([1]; liver microsomes) | Papp [3] | other results
O=C(Nc1ccc([N+](=O)[O-])cc1Cl)c1cc(-c2ccc(F)cc2F)ccc1O | > 30 min | < 23.7 ×10⁻⁶ cm/s | –
Nc1cccc(Cl)c1C(=O)Nc1ccc([N+](=O)[O-])cc1Cl | 2.2 min | 450 ×10⁻⁶ cm/s | –
O=C(Nc1ccc([N+](=O)[O-])c(Cl)c1)c1cc(Br)ccc1O | 20.3 min | – | –
N#Cc1ccc(NC(=O)c2cccc3cc[nH]c23)c(Cl)c1 | 15 min | 553 ×10⁻⁶ cm/s | –
NS(=O)(=O)c1ccc(NC(=O)c2cc(Cl)ccc2O)cc1 | > 30 min | < 1 ×10⁻⁶ cm/s | –
O=C(Nc1c(Cl)cc(F)cc1Cl)c1cc(Cl)ccc1O | 13 min | 25 ×10⁻⁶ cm/s | –
Nc1ccc(Cl)cc1C(=O)Nc1ccc([N+](=O)[O-])cc1Cl | 8.7 min | 671 ×10⁻⁶ cm/s | –
O=C(Nc1ccc([N+](=O)[O-])cc1Cl)c1cc([N+](=O)[O-])ccc1O | > 30 min | 30.3 ×10⁻⁶ cm/s | –
O=C(Nc1ccc2cc([N+](=O)[O-])ccc2c1)c1cc(Cl)ccc1O | > 30 min | 447 ×10⁻⁶ cm/s | –
O=C(Nc1ccc([N+](=O)[O-])cc1Cl)c1c(O)cccc1O | 26.2 min | – | –
O=C(Nc1ccc(C(F)(F)F)cc1Cl)c1ccc2ccccc2c1O | > 30 min | – | –
O=C(Nc1ccc(C(F)(F)F)c(F)c1)c1cc(Br)ccc1O | > 30 min | – | –
O=C(Nc1ccc([N+](=O)[O-])cc1Cl)c1ccc(Cl)cc1O | 21.2 min | – | –
O=C(Nc1ccc(C(F)(F)F)cc1Cl)c1cc(-c2ccc(F)cc2F)ccc1O | > 30 min | – | –
COc1ccc(C(=O)Nc2ccc([N+](=O)[O-])cc2Cl)c(O)c1 | > 30 min | < 3 ×10⁻⁶ cm/s | –
Cc1cccc(NC(=O)c2cc(Cl)ccc2O)c1C | 9.4 min | 48 ×10⁻⁶ cm/s | –
O=C(Nc1ccc([N+](=O)[O-])cc1Cl)c1cccc2cc[nH]c12 | > 30 min | – | permeability [2]: 1763 10^-6 cm/s
COc1ccc(O)c(C(=O)Nc2ccc([N+](=O)[O-])cc2Cl)c1 | 17.8 min | 67.1 ×10⁻⁶ cm/s | –
O=C(Nc1ccc(C(F)(F)F)cc1Cl)c1cc(Br)ccc1O | > 30 min | – | –
O=C(Nc1ccc([N+](=O)[O-])cc1Cl)c1cc(Br)ccc1O | > 30 min | 67.1 ×10⁻⁶ cm/s | –
O=C(Nc1ccc([N+](=O)[O-])cc1Cl)c1cc(Cl)ccc1O [NICLOSAMIDE] | – | < 1 ×10⁻⁶ cm/s | half-life ([1]; microsomes): > 30 min
